From US4117136A, “Systemic antimicrobial quinolines for plant disease” (Sumitomo Chemical Company, Ltd., priority 1976, dated 1978)
Converted amounts (≈) assume the structure as drawn. Counter-ions that a name gives are not always drawn. Like-named read-outs stand apart in the source and are kept apart here.

Legend:
Pseudomonas lachrymans = assay: Disease prevention effect on angular leaf spot of cucumber; format: in vivo, Pseudomonas lachrymans (on cucumber, Cucumis sativus L.); details: spray, 4 hours before inoculation
Method: Four hours after the application of the sample, a suspension of Pseudomonas lachrymans was inoculated by spraying on the plant. […] Incidence of disease was assessed in the following manner. […] |______________________________________ |______________________________________ |0 Healthy […] |3 26-50% diseased spot areas […] | [drawing 22] Five plants were used for each treatment.

Pseudomonas solanacearum = format: in vivo, Pseudomonas solanacearum (on tomato, Sekai Ichi); details: soil application, one day after inoculation, assessed after additional 10 days
Xanthomonas oryzae = format: in vivo, Xanthomonas oryzae (on rice plant, Kinki #33); details: spray, 500 ppm, 4 hours before inoculation, 7 days, bacterial-exudation method
Erwinia carotovora = assay: Plant systemic activity (root immersion, Chinese cabbage); details: roots immersed, 10 ppm, inoculated after 2 days
P. lachrymans = assay: Controlling angular leaf spot of cucumber by seed treatment; details: grown 2 weeks
E. carotovora = assay: Antibacterial activity against E. carotovora (agar dilution MIC); details: for MIC: Pectobacterium carotovorum, 72 h, read-out: MIC (minimum inhibitory concentration); for antibacterial activity: result in words, in vitro, Erwinia carotovora
[1] = inoculated seeds soaked 30 minutes, 500 ppm

| Compound | Severity of Disease (Pseudomonas lachrymans; 500 ppm) [%] | Ratio of Diseased Seedling (Pseudomonas solanacearum; 500 ppm) [%] | Severity of Disease (Xanthomonas oryzae) [%] | Severity of Disease (Erwinia carotovora) [%] | Infected Plants (P. lachrymans; [1]) [%] | MIC (E. carotovora) [µg/mL] | further results |
| --- | --- | --- | --- | --- | --- | --- | --- |
| CCn1cc(C(=O)OC)c(=O)c2cc3c(cc21)OCO3 [(2)] | 25 | 36 | 0 | 0 | 0 | > 50 | antibacterial activity (E. carotovora): very weak antibacterial activity |
| COn1cc(C(=O)O)c(=O)c2cc3c(cc21)OCO3 [(3)] | – | – | – | – | – | 0.39 (≈ 1.48 µM) | – |
| O=C(O)c1cn(CC(F)(F)F)c2cc3c(cc2c1=O)OCO3 [(6)] | – | – | – | – | – | 3.12 (≈ 9.9 µM) | – |
| CCOC(=O)c1cn(CCF)c2cc3c(cc2c1=O)OCO3 [(8)] | 21 | 24 | 0 | 0 | 0 | > 50 | antibacterial activity (E. carotovora): very weak antibacterial activity |
| COn1cc(C(=O)O)c(=O)c2c3sc(=O)n(C)c3ccc21 [(10)] | – | – | – | 25 | – | 0.049 (≈ 0.16 µM) | – |
| CCn1c(C)c(C(=O)O)c(=O)c2cc3c(cc21)OCO3 [(11)] | – | – | – | – | – | > 50 | antibacterial activity (E. carotovora): very weak antibacterial activity |
| C=Cn1cc(C(=O)O)c(=O)c2cc3c(cc21)OCO3 [(13)] | 2.4 | 4 | 0 | 0 | 0 | – | MIC (minimum inhibitory concentration) (E. carotovora; agar culture medium, 3 days at 27° C): 0.78 µg/mL (≈ 3.01 µM) |
| CCn1cc(C(=O)O)c(=O)c2cc3c(cc21)OCO3 [Compound (1)] | 7.9 | 10 | 0 | 0 | 0 | 1.56 (≈ 5.97 µM) | – |
| C=Cn1cc(C(=O)O)c(=O)c2cc3c(cc21)OCO3 [Compound (4)] | 4.6 | 6 | 0 | 0 | 0 | 0.78 (≈ 3.01 µM) | – |
| O=C(O)c1cn(CCF)c2cc3c(cc2c1=O)OCO3 [Compound (7)] | 12 | 18 | 0 | 0 | 0 | 0.78 (≈ 2.79 µM) | – |
| O=C(O)c1cn(CCCl)c2cc3c(cc2c1=O)OCO3 [Compound (9)] | 19 | 14 | 0 | 0 | – | 1.56 (≈ 5.28 µM) | – |
| CCn1cc(C(=O)O)c(=O)c2ccc(C)nc21 [Nalidixic acid, nalidixic acid, reference compound] | – | – | – | – | – | 6.25 (≈ 26.9 µM) | – |
| OCl [Sodium Hypochlorite, reference compound] | – | – | – | – | – | – | Infected Plants (P. lachrymans; inoculated seeds soaked 30 minutes, 2,000 ppm): 7.5% |
| [H]/N=C(/N)N[C@H]1[C@H](O)[C@@H](O)[C@H](O[C@@H]2O[C@@H](C)[C@](O)(C=O)[C@H]2O[C@@H]2O[C@@H](CO)[C@H](O)[C@@H](O)[C@@H]2NC)[C@@H](N/C(N)=N\[H])[C@@H]1O [Streptomycin Sulfate, reference compound] | – | – | – | 31 | – | – | Severity of Disease (Pseudomonas lachrymans; 200 ppm): 28%; Ratio of Diseased Seedling (Pseudomonas solanacearum; 200 ppm): 86%; Infected Plants (P. lachrymans; inoculated seeds soaked 30 minutes, 200 ppm): 26.5% |
